From PubChem BioAssay (NCI)
Several values for one entry are separate records, joined by “and”; a condition that tells them apart may be missing. Identical values can stand only once.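 Grown in 96-well plates, cells were treated for 48 hours with each compound at five concentrations. Insufficient inhibition: endpoint recorded as highest concentration tested. The concentration for 50% growth inhibition is given as GI50. TGI denotes the concentration required for complete inhibition of growth.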

Legend:
Assay in all cases: NCI tumour cell line growth inhibition, 48 h
[1] = tested on: SF-268 CNS
[2] = tested on: HOP-62 NSCLC
[3] = tested on: KM20L2 colon
[4] = tested on: A498 renal
[5] = tested on: SF-539 CNS
[6] = tested on: SF-295 CNS
[7] = tested on: HOP-18 NSCLC
[8] = tested on: UACC-257 melanoma
[9] = tested on: ACHN renal
[10] = tested on: CCRF-CEM leukemia
[11] = tested on: UACC-62 melanoma
[12] = tested on: EKVX NSCLC
[13] = tested on: NCI-H226 lung
[14] = tested on: SNB-19 CNS
[15] = tested on: HCT-116 colon
[16] = tested on: UO-31 renal
[17] = tested on: U251 CNS
[18] = tested on: HCC-2998 colon
[19] = tested on: SK-OV-3 ovarian
[20] = tested on: SN12C renal
[21] = tested on: SW-620 colon
[22] = tested on: RXF 393 renal
[23] = tested on: IGROV1 ovarian
[24] = tested on: SK-MEL-2 melanoma
[25] = tested on: MALME-3M melanoma
[26] = tested on: OVCAR-3 ovarian
[27] = tested on: RXF-631 renal
[28] = tested on: K-562 leukemia
[29] = tested on: MOLT-4 leukemia
[30] = tested on: NCI-H522 lung
[31] = tested on: COLO 205 colon
[32] = tested on: HT29 colon
[33] = tested on: OVCAR-8 ovarian
[34] = tested on: KM12 colon
[35] = tested on: A549 NSCLC
[36] = tested on: SK-MEL-5 melanoma
[37] = tested on: SNB-78 CNS
[38] = tested on: CAKI-1 renal
[39] = tested on: DMS 114 small cell lung
[40] = tested on: OVCAR-5 ovarian
[41] = tested on: DMS 273 small cell lung
[42] = tested on: HOP-92 NSCLC
[43] = tested on: NCI-H460 lung
[44] = tested on: SK-MEL-28 melanoma
[45] = tested on: 786-0 renal
[46] = tested on: M19-MEL melanoma
[47] = tested on: LXFL 529 NSCLC
[48] = tested on: HCT-15 colon
[49] = tested on: NCI-H23 lung
[50] = tested on: SR leukemia
[51] = tested on: SNB-75 CNS
[52] = tested on: RPMI-8226 leukemia
[53] = tested on: TK-10 renal
[54] = tested on: M14 melanoma
[55] = tested on: XF 498 CNS
[56] = tested on: HL-60(TB) leukemia
[57] = tested on: MDA-MB-231 breast
[58] = tested on: PC-3 prostate
[59] = tested on: DU-145 prostate
[60] = tested on: P388 leukemia
[61] = tested on: MDA-MB-435
[62] = tested on: P388/ADR leukemia
[63] = tested on: OVCAR-4 ovarian
[64] = tested on: BT-549 breast
[65] = tested on: NCI/ADR-RES ovarian
[66] = tested on: HS 578T breast
[67] = tested on: T-47D breast
[68] = tested on: MCF7 breast
[69] = tested on: LOX IMVI melanoma

Compound: CC(=O)OC1OC2C(NC(=O)OC(C)(C)C)C1CC2(OCc1ccccc1)OCc1ccccc1 (stereo not drawn)
- TGI [1]: > 100000 nM
- TGI [2]: 76300 nM
- TGI [3]: 39300 nM
- TGI [4]: > 82900 nM
- TGI [5]: 33800 nM
- TGI [6]: > 91500 nM
- TGI [7]: 46500 nM
- TGI [8]: 37900 nM
- TGI [9]: 80000 nM
- TGI [10]: 82900 nM
- TGI [11]: 42200 nM
- TGI [12]: > 100000 nM
- TGI [13]: 56500 nM
- TGI [14]: > 100000 nM
- TGI [15]: 31600 nM
- TGI [16]: 30300 nM
- TGI [17]: 32400 nM
- TGI [18]: 40700 nM
- TGI [19]: 74900 nM
- TGI [20]: 75200 nM
- TGI [21]: > 100000 nM
- TGI [22]: 32200 nM
- TGI [23]: 90300 nM
- TGI [24]: 38900 nM
- TGI [25]: 20800 nM
- TGI [26]: 38500 nM
- TGI [27]: > 100000 nM
- TGI [28]: > 94800 nM
- TGI [29]: 62900 nM
- TGI [30]: 30500 nM
- TGI [31]: 41500 nM
- TGI [32]: > 100000 nM
- TGI [33]: > 100000 nM
- TGI [34]: 71500 nM
- TGI [35]: > 100000 nM
- TGI [36]: 33100 nM
- TGI [37]: > 100000 nM
- TGI [38]: > 100000 nM
- TGI [39]: 58000 nM
- TGI [40]: 82400 nM
- TGI [41]: 69500 nM
- TGI [42]: 30300 nM
- TGI [43]: > 100000 nM
- TGI [44]: 57200 nM
- TGI [45]: 56800 nM
- TGI [46]: > 74100 nM
- TGI [47]: > 100000 nM
- TGI [48]: > 100000 nM
- TGI [49]: 41700 nM
- TGI [50]: > 100000 nM
- TGI [51]: > 100000 nM
- TGI [52]: 43300 nM
- TGI [53]: 44300 nM
- TGI [54]: 50600 nM
- TGI [55]: 41900 nM
- TGI [56]: 35200 nM

Compound: CC[C@@H](C)[C@H]([C@H](CC(=O)N1CCC[C@@H]1[C@@H](OC)[C@H](C)C(=O)N[C@H](Cc1ccccc1)c1nccs1)OC)N(C)C(=O)[C@H](NC(=O)[C@@H](C(C)C)N(C)C)C(C)C
- GI50 [57]: 0.147 nM
- TGI [57]: 0.867 nM and < 48 nM
- TGI [3]: 0.234 nM
- TGI [5]: 1.61 nM
- GI50 [58]: 0.00777 nM
- TGI [58]: > 65800 nM
- GI50 [8]: 0.425 nM and < 58.9 nM
- TGI [9]: > 100000 nM
- GI50 [59]: 0.0148 nM
- TGI [59]: 0.106 nM
- TGI [60]: 581 nM
- GI50 [10]: 0.257 nM and 0.425 nM
- GI50 [11]: 0.425 nM
- TGI [14]: 7.44 nM
- TGI [15]: 4.67 nM
- TGI [17]: 1.43 nM
- GI50 [18]: 0.425 nM
- TGI [18]: 1.76 nM and 2.34 nM
- TGI [61]: 0.00294 nM
- GI50 [19]: 0.079 nM
- GI50 [20]: 0.425 nM
- TGI [20]: 4250 nM and > 14700 nM
- GI50 [21]: 0.425 nM
- GI50 [22]: 17.9 nM
- GI50 [23]: 0.425 nM
- GI50 [24]: < 22.9 nM
- GI50 [25]: 0.425 nM
- TGI [62]: 0.573 nM
- GI50 [63]: 1200 nM and 588 nM
- GI50 [64]: 0.0848 nM
- TGI [64]: > 100000 nM
- TGI [26]: 0.158 nM and < 87 nM
- GI50 [65]: 0.317 nM
- TGI [65]: < 215 nM
- TGI [27]: 7.31 nM
- GI50 [28]: 0.425 nM
- TGI [28]: 2860 nM and > 4640 nM
- TGI [29]: > 28400 nM
- GI50 [30]: 0.0657 nM
- TGI [30]: 0.351 nM
- TGI [31]: 0.302 nM
- TGI [32]: 0.849 nM
- GI50 [33]: 0.425 nM
- GI50 [34]: 0.425 nM
- GI50 [66]: 0.0695 nM
- TGI [66]: 4060 nM
- GI50 [35]: 0.425 nM
- TGI [36]: 0.656 nM
- GI50 [38]: 0.245 nM and 0.425 nM
- TGI [39]: 1.23 nM
- GI50 [40]: < 15.2 nM
- GI50 [42]: 0.425 nM
- TGI [43]: 1.95 nM
- TGI [67]: > 100000 nM
- GI50 [44]: 1260 nM
- TGI [44]: > 100000 nM
- TGI [45]: 44100 nM
- GI50 [46]: 0.425 nM
- TGI [48]: 5.4 nM
- TGI [49]: 5.54 nM and < 215 nM
- GI50 [51]: 0.425 nM
- GI50 [52]: 0.425 nM
- GI50 [53]: 310 nM
- TGI [53]: 98300 nM
- TGI [68]: > 100000 nM
- GI50 [69]: 0.425 nM
- GI50 [56]: 0.425 nM
